Measurements taken from ChEMBL document CHEMBL1201862, “PubChem BioAssay data set” (2004).
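Each compound was tested at five concentrations against cells in 96-well plates for 48 hours. GI50 is the concentration that inhibits growth by half.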 Calls of active or inactive are those of the source. No stated cut-off is given here; in the data, active = GI50 up to about 1.1 µM and inactive = higher.

Experiments:
Assay in all cases: NCI anticancer screen, dose series, 48 h
786-0 = tested on: 786-0
A498 = tested on: A498
A549 = tested on: A549
ACHN = tested on: ACHN
BT-549 = tested on: BT-549
CAKI-1 = tested on: CAKI-1
CCRF-CEM = tested on: CCRF-CEM
COLO 205 = tested on: COLO 205
DU-145 = tested on: DU-145
EKVX = tested on: EKVX
HCC 2998 = tested on: HCC 2998
HCT-116 = tested on: HCT-116
HCT-15 = tested on: HCT-15
HL-60 = tested on: HL-60
HOP-62 = tested on: HOP-62
HOP-92 = tested on: HOP-92
HT-29 = tested on: HT-29
Hs-578T = tested on: Hs-578T
IGROV-1 = tested on: IGROV-1
K562 = tested on: K562
KM12 = tested on: KM12
LOX IMVI = tested on: LOX IMVI
M14 = tested on: M14
MCF7 = tested on: MCF7
MDA-MB-231 = tested on: MDA-MB-231
MDA-MB-435 = tested on: MDA-MB-435
MDA-N = tested on: MDA-N
MOLT-4 = tested on: MOLT-4
Malme-3M = tested on: Malme-3M
NCI-H226 = tested on: NCI-H226
NCI-H460 = tested on: NCI-H460
NCI/ADR-RES = tested on: NCI/ADR-RES
OVCAR-3 = tested on: OVCAR-3
OVCAR-4 = tested on: OVCAR-4
OVCAR-5 = tested on: OVCAR-5
OVCAR-8 = tested on: OVCAR-8
PC-3 = tested on: PC-3
RXF 393 = tested on: RXF 393
SF-268 = tested on: SF-268
SF-295 = tested on: SF-295
SF-539 = tested on: SF-539
SK-MEL-28 = tested on: SK-MEL-28
SK-MEL-2 = tested on: SK-MEL-2
SK-MEL-5 = tested on: SK-MEL-5
SK-OV-3 = tested on: SK-OV-3
SN12C = tested on: SN12C
SNB-19 = tested on: SNB-19
SNB-75 = tested on: SNB-75
SR = tested on: SR
SW-620 = tested on: SW-620
TK-10 = tested on: TK-10
UACC-257 = tested on: UACC-257
UACC-62 = tested on: UACC-62
UO-31 = tested on: UO-31
NCI-H522 = tested on: NCI-H522
T47D = tested on: T47D
RPMI-8226 = tested on: RPMI-8226
U-251 = tested on: U-251

Measured: GI50

Cc1nc2ccc(Br)cc2c(=O)n1-c1ccc(N)cc1
inactive: 786-0 > 100 µM | A498 > 100 µM | A549 > 100 µM | ACHN > 100 µM | BT-549 99.5 µM | CAKI-1 > 100 µM | CCRF-CEM > 100 µM | COLO 205 > 100 µM | DU-145 > 100 µM | EKVX > 100 µM | HCC 2998 > 100 µM | HCT-116 > 100 µM | HL-60 > 100 µM | HOP-62 > 100 µM | HOP-92 > 100 µM | HT-29 > 100 µM | Hs-578T > 100 µM | IGROV-1 > 100 µM | K562 > 100 µM | KM12 > 100 µM | LOX IMVI > 100 µM | M14 > 100 µM | MCF7 > 100 µM | MDA-MB-231 > 100 µM | MDA-MB-435 > 100 µM | MDA-N > 100 µM | MOLT-4 > 100 µM | Malme-3M > 100 µM | NCI-H226 > 100 µM | NCI-H460 > 100 µM | NCI/ADR-RES > 100 µM | OVCAR-3 > 100 µM | OVCAR-4 > 100 µM | OVCAR-5 > 100 µM | OVCAR-8 > 100 µM | PC-3 > 100 µM | RXF 393 28.1 µM | SF-268 > 100 µM | SF-295 > 100 µM | SF-539 > 100 µM | SK-MEL-28 > 100 µM | SK-MEL-2 > 100 µM | SK-MEL-5 > 100 µM | SK-OV-3 > 100 µM | SN12C > 100 µM | SNB-19 > 100 µM | SNB-75 17.2 µM | SR > 100 µM | SW-620 > 100 µM | TK-10 > 100 µM | UACC-257 > 100 µM | UACC-62 > 100 µM | UO-31 84.5 µM
> 100 µM: HCT-15

c1ccc(CNC2CC(NCc3ccccn3)CC(NCc3ccccn3)C2)nc1 (centres undefined)
inactive: 786-0 3.02 µM | A498 1.82 µM | A549 2.61 µM | ACHN 12.5 µM | BT-549 6.79 µM | CCRF-CEM 2.92 µM | COLO 205 1.81 µM | DU-145 3.14 µM | HCC 2998 1.98 µM | HCT-116 2.23 µM | HOP-62 5.47 µM | HOP-92 3.24 µM | Hs-578T 8.28 µM | IGROV-1 3.21 µM | KM12 1.73 µM | MCF7 2.29 µM | MDA-MB-435 3.28 µM | MDA-N 3.42 µM | MOLT-4 3.96 µM | Malme-3M 3.56 µM | NCI-H226 2.32 µM | NCI-H460 2.6 µM | NCI-H522 2.62 µM | OVCAR-3 3.33 µM | OVCAR-4 2.88 µM | SF-268 4.53 µM | SF-295 4.18 µM | SK-MEL-28 4.75 µM | SK-MEL-2 2.58 µM | SK-MEL-5 2.25 µM | SK-OV-3 2.82 µM | SN12C 5.97 µM | SNB-75 2.97 µM | SW-620 4.11 µM | T47D 4.61 µM | TK-10 4.58 µM | UACC-257 6.65 µM | UO-31 16.7 µM
4.21 µM: HCT-15

CCC(CCCN)Nc1cc(OC)cc2cccnc12 (centres undefined)
inactive: 786-0 > 100 µM | A498 > 100 µM | A549 > 100 µM | ACHN > 100 µM | BT-549 > 100 µM | CAKI-1 > 100 µM | CCRF-CEM 48.9 µM | COLO 205 33.6 µM | DU-145 > 100 µM | EKVX > 100 µM | HCC 2998 22.7 µM | HCT-116 > 100 µM | HL-60 21.9 µM | HOP-62 > 100 µM | HOP-92 > 100 µM | HT-29 32.4 µM | Hs-578T > 100 µM | IGROV-1 87.3 µM | K562 57 µM | KM12 > 100 µM | LOX IMVI > 100 µM | M14 41.3 µM | MCF7 29.4 µM | MDA-MB-231 53.5 µM | MDA-MB-435 > 100 µM | MDA-N > 100 µM | MOLT-4 > 10 µM | Malme-3M 38.7 µM | NCI-H226 > 100 µM | NCI-H460 > 100 µM | NCI/ADR-RES > 100 µM | OVCAR-3 40.4 µM | OVCAR-4 90.2 µM | OVCAR-5 > 100 µM | OVCAR-8 > 100 µM | PC-3 > 100 µM | RXF 393 41.3 µM | SF-268 > 100 µM | SF-295 > 100 µM | SF-539 > 100 µM | SK-MEL-28 > 100 µM | SK-MEL-2 > 100 µM | SK-MEL-5 85.1 µM | SK-OV-3 > 100 µM | SN12C > 100 µM | SNB-19 > 100 µM | SNB-75 31.1 µM | SR 79.6 µM | SW-620 > 100 µM | TK-10 > 100 µM | UACC-257 15.5 µM | UACC-62 46.3 µM | UO-31 70 µM
> 100 µM: HCT-15

CC(=O)OCCCCN1C(=O)CSc2ccccc21
> 100 µM: HCT-15
inactive: 786-0 > 10 µM | A498 > 100 µM | A549 > 100 µM | ACHN > 100 µM | BT-549 4.2 µM | CAKI-1 > 100 µM | CCRF-CEM > 100 µM | DU-145 > 100 µM | EKVX > 100 µM | HCT-116 > 100 µM | HL-60 > 100 µM | HOP-62 > 100 µM | HOP-92 > 100 µM | Hs-578T > 100 µM | IGROV-1 > 100 µM | KM12 > 100 µM | LOX IMVI > 100 µM | MCF7 > 100 µM | MDA-MB-435 > 100 µM | MDA-N > 100 µM | MOLT-4 > 100 µM | NCI-H460 > 100 µM | NCI-H522 > 100 µM | OVCAR-3 > 100 µM | OVCAR-4 > 100 µM | OVCAR-5 > 100 µM | PC-3 > 100 µM | RPMI-8226 > 100 µM | RXF 393 > 100 µM | SF-295 > 100 µM | SF-539 > 100 µM | SK-MEL-28 > 100 µM | SK-MEL-2 > 100 µM | SK-MEL-5 66.5 µM | SK-OV-3 > 100 µM | SN12C > 100 µM | SNB-19 > 100 µM | SNB-75 > 100 µM | SR > 100 µM | SW-620 > 100 µM | T47D > 100 µM | TK-10 > 100 µM | U-251 > 100 µM | UACC-257 > 100 µM | UACC-62 > 100 µM | UO-31 76.7 µM
